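Growth conditions: 96-well plates. Treatment: test compound, 48 hours, 5 concentrations. Analysis: linear interpolation between bracketing concentrations; unreached endpoints set to highest concentration. TGI: concentration producing complete growth inhibition.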 Where a SMILES comes first, the peptide text is derived from it. Bridges are numbered along the chain shown (N, C = ends). [ ]: non-standard residue; d: D form. The star is where a group is joined. Cbz = O=C(OCc1ccccc1)*; Aib = CC(C)(N)C(=O)O; OBn = c1ccc(CO*)cc1; βAla = NCCC(=O)O
Tests used:
Test in all cases: NCI tumour cell line growth inhibition, 48 h
[1] = test system: A498 renal
[2] = test system: ACHN renal
[3] = test system: COLO 205 colon
[4] = test system: HCT-116 colon
[5] = test system: HS 578T breast
[6] = test system: MALME-3M melanoma
[7] = test system: MDA-N
[8] = test system: MOLT-4 leukemia
[9] = test system: NCI-H226 lung
[10] = test system: NCI-H522 lung
[11] = test system: NCI/ADR-RES ovarian
[12] = test system: PC-3 prostate
[13] = test system: RXF 393 renal
[14] = test system: SNB-19 CNS
[15] = test system: SW-620 colon
[16] = test system: T-47D breast
[17] = test system: U251 CNS
[18] = test system: UACC-62 melanoma
[19] = test system: UO-31 renal

Measured: TGI

CC/C(=N/O)c1ccc(Br)s1
> 100 µM: [1] | [2] | [3] | [4] | [5] | [6] | [7] | [8] | [9] | [10] | [11] | [12] | [13] | [14] | [15] | [16] | [17] | [18] | [19]

CC1(C)NC(=O)C(NC(=O)C(CC(=O)OCc2ccccc2)NC(=O)OCc2ccccc2)CCCCNC(=O)CCNC1=O (stereo not drawn) (Cbz-D(OBn)K[Aib][βAla]; lactam 2-C; configuration not given here)
> 100 µM: [1] | [2] | [3] | [4] | [5] | [6] | [7] | [8] | [9] | [10] | [11] | [12] | [13] | [14] | [15] | [16] | [17] | [18] | [19]

From PubChem BioAssay (NCI)
